The target of assay [1] is T1, human Adenosine A3 receptor (Homo sapiens, UniProt P0DMS8).
T1 sequence (P0DMS8 1-318): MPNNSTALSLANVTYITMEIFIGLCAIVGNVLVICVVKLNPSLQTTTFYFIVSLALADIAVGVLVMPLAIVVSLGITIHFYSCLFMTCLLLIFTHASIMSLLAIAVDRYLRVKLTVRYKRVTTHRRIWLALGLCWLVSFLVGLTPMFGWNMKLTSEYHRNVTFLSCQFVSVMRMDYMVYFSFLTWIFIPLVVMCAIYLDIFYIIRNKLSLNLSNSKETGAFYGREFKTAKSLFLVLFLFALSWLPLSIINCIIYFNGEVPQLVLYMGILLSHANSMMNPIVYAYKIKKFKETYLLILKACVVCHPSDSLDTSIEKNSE
As to the kind of experiment: Adenosine receptor TR-FRET binding assay (CA200645 displacement), A3.

Assay [2] addresses T2, human Adenosine A1 receptor (Homo sapiens, UniProt P30542).
T2 sequence (P30542 1-326): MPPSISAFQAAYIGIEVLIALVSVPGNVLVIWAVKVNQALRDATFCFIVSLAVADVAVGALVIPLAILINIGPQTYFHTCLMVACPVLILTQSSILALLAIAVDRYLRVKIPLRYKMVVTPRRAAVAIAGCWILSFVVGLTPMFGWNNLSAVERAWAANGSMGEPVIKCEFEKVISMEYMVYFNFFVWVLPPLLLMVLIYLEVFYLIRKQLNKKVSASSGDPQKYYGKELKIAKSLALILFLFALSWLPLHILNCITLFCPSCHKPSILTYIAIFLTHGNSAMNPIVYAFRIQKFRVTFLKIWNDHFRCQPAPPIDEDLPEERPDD
As to the kind of experiment: Adenosine receptor TR-FRET binding assay (CA200645 displacement), A1. In general terms: Time-resolved FRET reads energy transfer from a long-lived donor to a nearby acceptor.
Method: All FRET binding experiments were conducted at room temperature in white 384-well plates, in assay binding buffer containing 1×LabMed (Cisbio, France), 100 μg/mL saponin, 1% DMSO and 0.02% pluronic acid. Binding of the fluorescently labelled Adenosine receptor antagonist XAC (CA200645, FRET acceptor) to terbium-labelled A1, A2a, A2b and A3 adenosine receptors (FRET donors) was detected by time-resolved FRET due to the close proximity of the donor and acceptor in a binding event. To investigate the ability of unlabelled test compounds to bind to Adenosine A1, A2a, A2b and A3 receptors, dose response curves were constructed that determined the ability of a range of concentrations to inhibit the binding of 30 nM CA200645 to the A2b receptor and 100 nM CA200645 to the A1, A2a, and A3 receptor.
Serial dilution (1:3 dilutions) of test compounds in neat DMSO and transfer of a 400 nL sample of test compound into the assay plate was carried out using the Mosquito (TTP Labtech, UK). The compound samples were incubated for 2 hours at room temperature with a fixed concentration of CA200645 defined for each receptor (see above) and CHO cell membranes containing the human Adenosine A1 (0.5 μg/well), A2a (0.3 μg/well), A2b (1 μg/well) or A3 (1 μg/well) receptor in 40 μL of assay buffer. Total and non-specific binding of CA200645 was determined in the absence and presence of 10 μM XAC, respectively. Following 2 hours incubation, the level of CA200645 binding was detected on a Pherastar FSX (BMG Labtech, Germany) using standard TR-FRET settings. The terbium donor was excited with three laser flashes at a wavelength of 337 nm, and donor and acceptor emission was detected at 620 nm and 665 nm wavelengths, respectively. FRET ratios were obtained by multiplying the acceptor/donor ratio value by 10,000. Specific binding was determined by subtracting the non-specific binding FRET ratio from the total binding FRET ratio. Compound IC50 curves were analysed using GraphPad Prism 7.0 (GraphPad, USA) and Ki affinity values were determined from the obtained IC50 values using the method of Cheng and Prusoff.

The subject of assay [3] is human PBMCs. In words: CD3/CD28 stimulated IL-2 release NECA reversal assay in human PBMCs.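 Further: dose-response as % inhibition where 100% equals no-NECA control wells with CD3/CD28.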 In kind it is cell-based. Conditions: PBMC, CD3/CD28 antibody stimulated, 1 uM NECA, 24 hours, IL-2 in culture supernatant. The procedure, abridged: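 PBMCs from citrated donor blood, 50,000 cells/well on plate-bound CD3 antibody (1 ug/ml), with 1 ug/ml CD28 antibody, 1 uM NECA and antagonist at 0.003-10 μM final. After 24 h at 37° C, supernatant IL-2 was measured by MSD immunoassay.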

Assay [4] concerns the target T3, human Adenosine A2b receptor (Homo sapiens, UniProt P29275).
T3 construct: expressed in transfected cells; host or cells: CHO cell membranes
T3 sequence (P29275 1-332): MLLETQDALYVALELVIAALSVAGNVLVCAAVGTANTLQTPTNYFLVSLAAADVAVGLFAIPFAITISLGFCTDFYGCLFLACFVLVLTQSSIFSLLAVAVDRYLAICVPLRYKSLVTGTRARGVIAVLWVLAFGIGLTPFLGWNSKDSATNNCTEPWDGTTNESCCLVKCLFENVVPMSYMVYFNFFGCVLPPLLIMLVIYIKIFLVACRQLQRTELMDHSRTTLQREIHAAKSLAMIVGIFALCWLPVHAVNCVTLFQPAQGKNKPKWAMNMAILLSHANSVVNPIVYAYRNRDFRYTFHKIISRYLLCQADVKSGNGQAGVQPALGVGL
As to the kind of experiment: Adenosine receptor TR-FRET binding assay (CA200645 displacement), A2b. The following applies: 30 nM CA200645, CHO cell membranes, 2 hours at room temperature.

Assay [5] concerns the target T4, human Adenosine A2a receptor (Homo sapiens, UniProt P29274).
T4 construct: expressed in transfected cells; host or cells: CHO cell membranes
As to the kind of experiment: Adenosine receptor TR-FRET binding assay (CA200645 displacement), A2a. Conditions: 100 nM CA200645, CHO cell membranes, 2 hours at room temperature.

Assay [6] deals with CD8+ T cells in human whole blood. As to the kind of experiment: Measurement of pCREB in CD8+ T cells in human whole blood. In kind it is cell-based. Conditions: T-cell, 1 h; heparinised human whole blood, rolipram, 3 μM NECA, 60 min, phospho-CREB in CD8+ T cells by FACS. In outline:
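Heparinised human whole blood preincubated 20 min at 37 °C with serially diluted A2a antagonists plus rolipram, then stimulated 60 min with 3 μM NECA (final). After fixation and RBC lysis, permeabilized leukocytes stained for phospho-CREB and CD8; pCREB in CD8+ T cells read by flow cytometry.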

T4 sequence (P29274 whole entry): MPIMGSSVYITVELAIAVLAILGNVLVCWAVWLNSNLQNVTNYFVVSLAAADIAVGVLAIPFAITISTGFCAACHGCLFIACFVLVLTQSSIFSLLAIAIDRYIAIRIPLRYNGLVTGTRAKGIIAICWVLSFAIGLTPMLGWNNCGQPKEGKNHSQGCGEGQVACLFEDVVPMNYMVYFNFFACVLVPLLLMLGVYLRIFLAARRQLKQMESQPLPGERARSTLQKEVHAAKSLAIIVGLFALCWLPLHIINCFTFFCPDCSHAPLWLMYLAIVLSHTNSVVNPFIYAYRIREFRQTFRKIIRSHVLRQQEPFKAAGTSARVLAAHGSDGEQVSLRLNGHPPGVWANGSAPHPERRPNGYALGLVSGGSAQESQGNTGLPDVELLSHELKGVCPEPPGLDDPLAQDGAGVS

With `Cc1cc(-c2c(-c3cccc(C#N)c3)nn3ccc(C(=O)NCC(C)(C)O)nc23)cc(C(F)(F)F)n1` [Example 12.9, 2-(3-Cyanophenyl)-N-(2-hydroxy-2-methyl-propyl)-3-[2-methyl-6-(trifluoromethyl)-4-pyridyl]pyrazolo[1,5-a]pyrimidine-5-carboxamide], the Ki is 860 nM in assay [1], 47 nM in assay [2], 6 nM in assay [4] and 0.1 nM in assay [5]. Also, the IC50 in assay [3] is 2 nM; in assay [6] it was 80 nM.

Take `Cc1cc(-c2c(-c3cccc(C#N)c3)nn3ccc(OCC(C)(C)O)nc23)cc(Cl)n1` [Example 15, 3-[3-(2-Chloro-6-methyl-4-pyridyl)-5-(2-hydroxy-2-methyl-propoxy)pyrazolo[1,5-a]pyrimidin-2-yl]benzonitrile]: the Ki in assay [1] was determined as 1920 nM; in assay [2], 46 nM; in assay [4], 9 nM; in assay [5], 1.2 nM. Further, the IC50 in assay [3] worked out at 2 nM; in assay [6] it was 380 nM.

Turning to `Cc1cc(-c2c(-c3cccc(C#N)c3)nn3ccc(NC(=N)N)nc23)cc(Cl)n1` [Example 16.1, 1-[3-(2-Chloro-6-methyl-4-pyridyl)-2-(3-cyanophenyl)pyrazolo[1,5-a]pyrimidin-5-yl]guanidine], the Ki in assay [1] was found to be 2600 nM; in assay [2], 116 nM; in assay [4], 8 nM; in assay [5], 1.4 nM. Also, the IC50 worked out at 77 nM in assay [3] and 1050 nM in assay [6].

Regarding `Cc1cc(-c2c(-c3cccc(C#N)c3)nn3ccc(NCC(C)(C)O)nc23)cc(C(F)F)n1` [Example 23, 3-[3-[2-(Difluoromethyl)-6-methyl-4-pyridyl]-5-[(2-hydroxy-2-methyl-propyl)amino]pyrazolo[1,5-a]pyrimidin-2-yl]benzonitrile], the Ki in assay [1] was more than 1000 nM; in assay [2], 42 nM; in assay [4], 53 nM; in assay [5], 0.6 nM. Also, the IC50 in assay [3] worked out at 20 nM; in assay [6], 390 nM.

For `COc1cc(-c2c(-c3cccc(C#N)c3)nn3ccc(NCC(C)(C)O)nc23)cc(C)n1` [Example 23.1], the Ki in assay [1] was more than 1000 nM; in assay [2] it was 147 nM; in assay [4], 143 nM; in assay [5], 1.3 nM. For the same compound, the IC50 came out at 83 nM in assay [3] and 1010 nM in assay [6].

In the case of `Cc1cc(-c2c(-c3cccc(C#N)c3)nn3ccc(NCC(C)(C)O)nc23)cc(C)n1` [Example 23.2], the Ki in assay [1] was more than 1000 nM; in assay [2], 280 nM; in assay [4], 168 nM; in assay [5] it was 1.9 nM. Also, the values for the IC50 in assay [3] and in assay [6] were 25 nM and 260 nM, respectively.

Turning to `Cc1cc(-c2c(-c3cccc(C#N)c3)nn3ccc(OC4CCNCC4)nc23)cc(Cl)n1` [Example 24, 3-[3-(2-Chloro-6-methyl-4-pyridyl)-5-(4-piperidyloxy)pyrazolo[1,5-a]pyrimidin-2-yl]benzonitrile], the Ki in assay [1] is more than 1000 nM; in assay [2] it was 216 nM; in assay [4] it was 16 nM; in assay [5], 0.6 nM. The IC50 in assay [3] was determined as 51 nM; in assay [6], 3630 nM.

As for `Cc1cc(-c2c(-c3cccc(C#N)c3)nn3ccc(N)nc23)cc(C(F)F)n1` [Example 26.1, 3-[5-Amino-3-[2-(difluoromethyl)-6-methyl-4-pyridyl]pyrazolo[1,5-a]pyrimidin-2-yl]benzonitrile], the Ki in assay [1] stood at 2360 nM; in assay [2], 17 nM; in assay [4], 2 nM; in assay [5], 1.5 nM. For the same compound, the values for the IC50 in assay [3] and in assay [6] were 32 nM and 460 nM, respectively.

As to `COc1cc(-c2c(-c3cccc(C#N)c3)nn3ccc(N)nc23)cc(C)n1` [Example 26.2, 3-[5-Amino-3-(2-methoxy-6-methyl-4-pyridyl)pyrazolo[1,5-a]pyrimidin-2-yl]benzonitrile], the Ki in assay [1] is 2520 nM; in assay [2] it was 123 nM; in assay [4], 18 nM; in assay [5], 6.2 nM. Besides, the IC50 in assay [3] came to 69 nM; in assay [6] it was 2540 nM.

`Cc1cc(-c2c(-c3cccc(C#N)c3)nn3ccc(N)nc23)cc(N)n1` [Example 27.1, 3-[5-Amino-3-(2-amino-6-methyl-4-pyridyl)pyrazolo[1,5-a]pyrimidin-2-yl]benzonitrile]: the Ki was more than 1000 nM in assay [1], 62 nM in assay [2], 43 nM in assay [4] and 9.2 nM in assay [5]. The figures for the IC50 in assay [3] and in assay [6] were 36 nM and 740 nM, respectively.

Turning to `Cc1cc(-c2c(-c3cccc(C#N)c3)nn3ccc(NC(N)=O)nc23)cc(Cl)n1` [Example 30, [3-(2-Chloro-6-methyl-4-pyridyl)-2-(3-cyanophenyl)pyrazolo[1,5-a]pyrimidin-5-yl]urea], the Ki in assay [1] is more than 1000 nM; in assay [2], 57 nM; in assay [4], 5 nM; in assay [5], 0.8 nM. Moreover, the values for the IC50 in assay [3] and in assay [6] were 21 nM and 640 nM, respectively.

On to `Cc1cc(-c2c(-c3cccc(C#N)c3)nn3ccc(NC(N)=O)nc23)cc(C)n1` [Example 30.3, [2-(3-Cyanophenyl)-3-(2,6-dimethyl-4-pyridyl)pyrazolo[1,5-a]pyrimidin-5-yl]urea], for which the Ki is more than 1000 nM in assay [1], 47 nM in assay [2], 14 nM in assay [4] and 1.8 nM in assay [5]. The IC50 in assay [3] is 50 nM; in assay [6] it was 120 nM.

On to `Cc1cc(-c2c(-c3cccc(C#N)c3)nn3ccc(N/C(=N\C#N)NC(C)C)nc23)cc(Cl)n1` [Example 32.1, 1-[3-(2-Chloro-6-methyl-4-pyridyl)-2-(3-cyanophenyl)pyrazolo[1,5-a]pyrimidin-5-yl]-2-cyano-3-isopropyl-guanidine], for which the Ki is 115 nM in assay [1], 10 nM in assay [2], 1 nM in assay [4] and 0.2 nM in assay [5]. Also, the IC50 in assay [3] was 9 nM; in assay [6], 1180 nM.

In the case of `Cc1cc(-c2c(-c3cccc(C#N)c3)nn3ccc(N/C(=N\C#N)NCC(C)(C)O)nc23)cc(Cl)n1` [Example 32.2, 1-[3-(2-Chloro-6-methyl-4-pyridyl)-2-(3-cyanophenyl)pyrazolo[1,5-a]pyrimidin-5-yl]-2-cyano-3-(2-hydroxy-2-methyl-propyl)quanidine], the Ki in assay [1] is more than 1000 nM; in assay [2] it was 29 nM; in assay [4], 5 nM; in assay [5], 0.8 nM. The values for the IC50 in assay [3] and in assay [6] were 16 nM and 490 nM, respectively.

`Cc1cccnc1CNc1ccn2nc(-c3ccco3)c(C#N)c2n1` [Example 37, 2-(2-Furyl)-5-[(3-methyl-2-pyridyl)methylamino]pyrazolo[1,5-a]pyrimidine-3-carbonitrile]: the Ki was 186 nM in assay [1], 5 nM in assay [2], 22 nM in assay [4] and 0.3 nM in assay [5]. Further, the IC50 in assay [3] was 13 nM; in assay [6], 1460 nM.

Take `Cc1cc(-c2c(-c3cccc(C#N)c3)nn3ccc(C(=O)N[C@@H](C)C(C)(C)O)nc23)cc(C)n1` [Example 92, 2-(3-Cyanophenyl)-3-(2,6-dimethyl-4-pyridyl)-N-[(1S)-2-hydroxy-1,2-dimethyl-propyl]pyrazolo[1,5-a]pyrimidine-5-carboxamide]: the Ki in assay [1] was 1470 nM; in assay [2], 107 nM; in assay [4] it was 37 nM; in assay [5], 0.4 nM. Further, the IC50 in assay [3] came to 4 nM; in assay [6], 20 nM.

For orientation: Ki means the equilibrium dissociation constant of an inhibitor or competing ligand from its target. A low value points to tighter binding. By IC50 is commonly meant the midpoint of a concentration-inhibition curve.
